Source: PubChem BioAssay (NCI)
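The compound was tested at five concentrations on cells cultured in 96-well plates, with a 48-hour exposure period. The concentration for 50% growth inhibition is given as GI50. TGI: concentration producing complete growth inhibition.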

What was measured:
Assay in all cases: NCI-60 cell line screen, 48 h
SNB-19 CNS = system: SNB-19 CNS
OVCAR-5 ovarian = system: OVCAR-5 ovarian
NCI-H522 lung = system: NCI-H522 lung
EKVX NSCLC = system: EKVX NSCLC
SK-MEL-28 melanoma = system: SK-MEL-28 melanoma
SK-MEL-5 melanoma = system: SK-MEL-5 melanoma
SF-268 CNS = system: SF-268 CNS
HOP-92 NSCLC = system: HOP-92 NSCLC
OVCAR-4 ovarian = system: OVCAR-4 ovarian
RXF 393 renal = system: RXF 393 renal

SMILES | TGI (SNB-19 CNS) [µM] | TGI (OVCAR-5 ovarian) [µM] | TGI (NCI-H522 lung) [µM] | TGI (EKVX NSCLC) [µM] | TGI (SK-MEL-28 melanoma) [µM] | TGI (SK-MEL-5 melanoma) [µM] | TGI (SF-268 CNS) [µM] | TGI (HOP-92 NSCLC) [µM] | TGI (OVCAR-4 ovarian) [µM] | TGI (RXF 393 renal) [µM] | GI50 (SNB-19 CNS) [µM] | GI50 (HOP-92 NSCLC) [µM] | GI50 (OVCAR-5 ovarian) [µM] | GI50 (NCI-H522 lung) [µM] | GI50 (EKVX NSCLC) [µM] | GI50 (RXF 393 renal) [µM] | GI50 (SK-MEL-28 melanoma) [µM] | GI50 (SK-MEL-5 melanoma) [µM] | GI50 (SF-268 CNS) [µM] | GI50 (OVCAR-4 ovarian) [µM]
O=C1c2ccccc2-c2cc3ccccc3c(=O)n21 | > 100 | > 100 | > 100 | > 100 | > 100 | > 100 | > 100 |  |  |  |  |  |  |  |  |  |  |  |  | 
COc1ccc([Se]c2ccc(OC)cc2OC)c(OC)c1 | > 100 | > 100 | 38.2 |  | 77.1 | 93.4 | > 100 | 16.3 | > 100 | 59.5 |  |  |  |  |  |  |  |  |  | 
CCOC(=O)/C=C1\Nc2ccccc2C(c2ccccc2)=NC1OC(C)=O (centres undefined) |  |  | > 100 | > 100 | > 100 | > 100 | > 100 | > 100 | > 100 |  |  |  |  |  |  |  |  |  |  | 
c1ccc(SCCCC(Sc2ccccc2)Sc2ccccc2)cc1 | > 100 |  |  | > 100 | > 100 | > 100 | > 100 | > 100 | > 100 | > 100 |  |  |  |  |  |  |  |  |  | 
CN1CC2(CCCCC2)C(O)C12C=CCCC2 (centres undefined) | > 100 |  | > 100 | > 100 | > 100 | > 100 | > 100 |  |  | > 100 |  |  |  |  |  |  |  |  |  | 
O=c1c2ccccc2nc(-c2ccccc2)n1NCC1(O)OCC(O)C(O)C1O (centres undefined) | > 100 | > 100 | > 100 | > 100 | > 100 | > 100 | > 100 | > 100 | > 100 |  |  |  |  |  |  |  |  |  |  | 
CC(C)OP(=O)(CP(=O)(OC(C)C)OC(C)C)OC(C)C.[CH3][Sn]([Br])([Br])[Br] | > 100 | > 100 | > 100 | > 100 | > 100 | > 100 | > 100 | > 100 |  | > 100 | > 100 | > 100 | > 100 | > 100 | > 100 | > 100 | > 100 | > 100 | > 100 | 
COc1ccccc1C(=O)c1cnc(NC2CCN(S(C)(=O)=O)CC2)nc1N | > 25 | > 25 | > 25 |  | > 25 | > 25 | > 25 | > 22.9 | > 25 | 10.5 | 4.71 | 6.14 | 4.92 | > 25 |  | 4.4 | 6.38 | 4.84 | 7.35 | 12.4
Brc1ccc2c(c1)C1(c3cc(Br)ccc3-2)c2cc(Br)ccc2-c2ccc(Br)cc21 | > 100 | > 100 | > 100 | > 100 | > 100 |  | > 100 |  | > 100 | > 100 |  |  |  |  |  |  |  |  |  | 
O=C(O)c1cc(Cl)cc(NC(=O)C(Cl)Cl)c1Cl | > 100 |  | > 100 | > 100 | > 100 | > 100 | > 100 |  | > 100 | > 100 |  |  |  |  |  |  |  |  |  | 
c1ccc2c(c1)CCCc1cc3ccccc3nc1-2 | > 100 | > 100 | > 100 | > 100 | > 100 | > 100 | > 100 |  | > 100 |  |  |  |  |  |  |  |  |  |  | 
COc1c(O)c(OC)c(C(=O)/C=C/c2ccccc2)c(O)c1OC | > 100 | > 100 | 31.9 | > 100 | > 100 | 46 | > 100 | 81 | > 100 |  |  |  |  |  |  |  |  |  |  | 
Cc1ccc(NC(=O)CCC(=O)C2CC(=O)CC/C2=N\NC(=O)c2cc3ccccc3cc2O)cc1C (centres undefined) | > 100 | 56.8 | 39.5 | 99.6 | > 100 | 29.6 | > 100 | > 100 | 51.4 |  |  |  |  |  |  |  |  |  |  | 
O=C1OC(c2ccc(O)cc2)(c2ccc(O)cc2)c2cccc3cccc1c23 | 34.5 | 31.7 | 33.5 |  | 29.5 | 31.3 | 32.2 | 26.8 | 17.4 | 29.9 | 16.8 | 12.2 | 16.5 | 14 |  | 14.6 | 14.3 | 16.1 | 14.2 | 0.18
COc1cc[nH]c1/C=C1\C(=O)Nc2ccc(F)c(C#CC3(O)CCOCC3)c21 | > 19.5 | > 7.16 | 4.53 |  | 3.11 | 1.19 | 2.03 | 2.02 | 14.7 | 1.01 | 1.02 | 0.678 | 0.714 | 1.08 |  | 0.305 | 0.677 | 0.497 | 0.714 | 2.34
COC(=O)C12CC(C3CC31)C1CC12 (centres undefined) | > 100 | > 100 |  |  | > 100 | > 100 | > 100 | > 100 | > 100 |  |  |  |  |  |  |  |  |  |  | 
CO[C@H]1C=C[C@]23c4cc5c(cc4CN(CC2O)[C@@H]3C1)OCO5 (some centres undefined) | 40.9 | > 100 | 16 | 52.2 | 54.9 | 17.8 | 32.7 | 2.74 | 11.3 |  |  |  |  |  |  |  |  |  |  | 
CCC1OCCN1C(C)C (centres undefined) | > 100 | > 100 | > 100 | 86.8 | 92.2 | > 100 | > 100 |  |  | > 100 |  |  |  |  |  |  |  |  |  | 
N#Cc1c2c(c(N=[N+]=[N-])n3c1nc1ccccc13)CCCC2 | 7.84 | 16.8 |  | 30.9 | 14 | 32.3 | 16 |  | 5.33 | 3.19 |  |  |  |  |  |  |  |  |  | 
CC(C)OP(=O)(OC(C)C)C(N(C)C)P(=O)(OC(C)C)OC(C)C.[Cl][Sn]([Cl])([Cl])[c]1ccccc1 | > 100 | 49.1 | 9.78 | 52.5 | 75.4 | 3.16 | 31.7 |  |  | 11.4 | 17.8 |  | 4.37 | 3.02 | 3.49 | 2.81 | 5.01 | 1.65 | 2.9 | 
